Experimental data reported in US20220411381A1, “PYRIMIDINEDIONE DERIVATIVES” (Bayer Aktiengesellschaft, priority 2019, published 2022).
Like-named read-outs stand apart in the source and are kept apart here.

Legend:
[1] = biological target: T1, recombinant human BCAT1 enzyme (Homo sapiens, UniProt P54687); test: In vitro assay 1a: BCAT1 biochemical assay (coupled LeuDH/NADH fluorescence readout); conditions: read-out: BCAT1 IC50
T1 construct: purchased ATGen (South Korea) ATGP1479
T1 sequence (P54687 1-386): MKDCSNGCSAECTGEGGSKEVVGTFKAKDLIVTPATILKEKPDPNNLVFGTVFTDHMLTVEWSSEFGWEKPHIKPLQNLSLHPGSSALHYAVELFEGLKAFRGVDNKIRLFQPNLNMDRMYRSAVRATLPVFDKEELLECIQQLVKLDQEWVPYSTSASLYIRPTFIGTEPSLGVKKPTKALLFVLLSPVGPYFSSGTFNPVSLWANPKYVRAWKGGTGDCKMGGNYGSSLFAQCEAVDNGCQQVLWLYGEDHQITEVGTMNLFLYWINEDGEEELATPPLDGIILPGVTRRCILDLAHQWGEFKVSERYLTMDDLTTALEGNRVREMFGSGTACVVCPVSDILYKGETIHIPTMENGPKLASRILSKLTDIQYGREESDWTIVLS
Procedure: (§1) In Vitro Assay 1a and 1b: BCAT1 and BCAT2 Biochemical Assay
(§2) BOAT (Branched chain amino acid transferase) catalyzes transamination of the branched chain amino acid leucine to α-ketoisocaproate (KIC). The BOAT enzymatic reaction was measured in a coupled readout with leucine dehydrogenase (LeuDH) which catalyzes the Nicotinamide adenine dinucleotide (NADH) dependent reduction of KIC to leucine. NADH consumption is measured by fluorescent readout.
(§3) The biochemical reactions were performed at 32° C. in 384-well plates using a reaction volume of 51 μl and the following assay buffer conditions: 50 mM HEPES (2-[4-(2-hydroxyethyl)piperazin-1-yl]ethanesulfonic acid) pH 8.0, 50 mM aqueous solution of ammonium sulfate, 1 mM ethylenediaminetetraacetic acid, 2 mM dithiothreitol, 0.01% bovine serum albumine, 0.005% Brij 35 detergent, 0.5 μM PLP (pyridoxalphosphate), 10 μM NADH, and 50 μM α-ketoglutarate), and 100 μM leucine. […] Test compounds were used in a concentration range between 0.005 and 30 μM. The final DMSO concentration was 2%.
(§4) The reaction was initiated by addition of substrates (Leucine, α-KG, NADH).

[2] = biological target: T2, recombinant human BCAT2 enzyme (Homo sapiens, UniProt O15382); test: In vitro assay 1b: BCAT2 biochemical assay (coupled LeuDH/NADH fluorescence readout); conditions: recombinant human BCAT2 […], 32° C., 100 μM leucine, 50 μM α-ketoglutarate, NADH fluorescence over 90 min; read-out: BCAT2 IC50; further: recombinant human BCAT2 0.75 nM
T2 construct: purchased ATGen (South Korea) ATGP1523
T2 sequence (O15382 28-392): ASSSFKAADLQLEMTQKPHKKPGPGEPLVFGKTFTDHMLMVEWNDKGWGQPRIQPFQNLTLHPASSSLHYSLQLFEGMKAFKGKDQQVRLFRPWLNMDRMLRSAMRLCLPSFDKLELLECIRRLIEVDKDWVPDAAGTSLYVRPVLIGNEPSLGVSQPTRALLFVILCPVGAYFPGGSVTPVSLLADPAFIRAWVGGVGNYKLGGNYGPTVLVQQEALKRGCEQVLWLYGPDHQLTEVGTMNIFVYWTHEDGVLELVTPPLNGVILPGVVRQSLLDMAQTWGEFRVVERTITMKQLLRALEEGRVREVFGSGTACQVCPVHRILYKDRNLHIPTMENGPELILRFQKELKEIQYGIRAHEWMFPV
Procedure: as §1, §2, §3, §4

[3] = recombinant human BCAT1 […], 32° C., 100 μM leucine, 50 μM α-ketoglutarate, NADH fluorescence over 90 min

Row | Compound | IC50 [1] | IC50 [2] | IC50 [1, 3]
1 | 4-[4-(Methanesulfonyl)-2,6-dioxo-3,6-dihydropyrimidin-1(2H)-yl]-5-methoxy-2-(2-methylphenoxy)benzonitrile (atrop 2) [Example 81] | 2500 nM |  | 
2 | Cc1ccccc1Oc1cc(-n2c(=O)cc(C(F)(F)F)[nH]c2=O)c(Cl)cc1C#N (racemic) [Example 11, 5-Chloro-4-[2,6-dioxo-4-(trifluoromethyl)-3,6-dihydropyrimidin-1(2H)-yl]-2-(2-methylphenoxy)benzonitrile (rac)] |  | 2000 nM | 
3 | Cc1ccccc1Oc1cc(-n2c(=O)cc(C(F)(F)F)[nH]c2=O)c(Br)cc1C#N (racemic) [Example 18, 5-Bromo-4-[2,6-dioxo-4-(trifluoromethyl)-3,6-dihydropyrimidin-1(2H)-yl]-2-(2-methylphenoxy)benzonitrile (rac)] |  | 2600 nM | 200 nM
4 | COc1cc(C#N)c(Oc2ccccc2C)cc1-n1c(=O)cc(C(F)F)[nH]c1=O (racemic) [Example 22, 4-[4-(Difluoromethyl)-2,6-dioxo-3,6-dihydropyrimidin-1(2H)-yl]-5-methoxy-2-(2-methylphenoxy)benzonitrile (rac)] |  |  | 150 nM
5 | COc1cc(C#N)c(Oc2ccccc2C)cc1-n1c(=O)cc(C(F)(F)c2ccccc2)[nH]c1=O (racemic) [Example 24, 4-{4-[Difluoro(phenyl)methyl]-2,6-dioxo-3,6-dihydropyrimidin-1(2H)-yl}-5-methoxy-2-(2-methylphenoxy)benzonitrile (rac)] |  | 600 nM | 145 nM
6 | COc1cc(C#N)c(Oc2ccccc2C)cc1-n1c(=O)cc(C(F)(F)Cl)[nH]c1=O (racemic) [Example 25, 4-{4-[Chloro(difluoro)methyl]-2,6-dioxo-3,6-dihydropyrimidin-1(2H)-yl}-5-methoxy-2-(2-methylphenoxy)benzonitrile (rac)] |  | 1300 nM | 200 nM
7 | Cc1ccccc1Oc1cc(-n2c(=O)cc(C(F)(F)Cl)[nH]c2=O)c(Cl)cc1C#N (racemic) [Example 26, 5-Chloro-4-{4-[chloro(difluoro)methyl]-2,6-dioxo-3,6-dihydropyrimidin-1(2H)-yl}-2-(2-methylphenoxy)benzonitrile (rac)] |  | 2170 nM | 270 nM
8 | Cc1cccc(C)c1Oc1cc(-n2c(=O)cc(C(F)(F)F)[nH]c2=O)c(Cl)cc1C#N (racemic) [Example 38, 5-Chloro-2-(2,6-dimethylphenoxy)-4-(2,6-dioxo-4-(trifluoromethyl)-2,3-dihydropyrimidin-1(6H)-yl)benzonitrile (rac)] |  | 1670 nM | 283 nM
9 | COc1cc(C#N)c(Oc2ccccc2C)cc1-n1c(=O)cc(C(F)(F)C(F)(F)F)[nH]c1=O (racemic) [Example 51, 4-[2,6-Dioxo-4-(pentafluoroethyl)-3,6-dihydropyrimidin-1(2H)-yl]-5-methoxy-2-(2-methylphenoxy)benzonitrile (rac)] |  | 4330 nM | 
10 | Cc1ccccc1Oc1cc(-n2c(=O)cc(C(F)(F)c3ccccc3)[nH]c2=O)c(Cl)cc1C#N (racemic) [Example 53, 5-Chloro-4-{4-[difluoro(phenyl)methyl]-2,6-dioxo-3,6-dihydropyrimidin-1(2H)-yl}-2-(2-methylphenoxy)benzonitrile (rac)] |  | 1600 nM | 750 nM
11 | Cc1ccccc1Oc1cc(-n2c(=O)cc(C(F)(F)F)[nH]c2=O)c(O)cc1C#N (racemic) [Example 54, 4-[2,6-Dioxo-4-(trifluoromethyl)-3,6-dihydropyrimidin-1(2H)-yl]-5-hydroxy-2-(2-methylphenoxy)benzonitrile (rac)] |  | 15500 nM | 1800 nM
12 | Cc1ccccc1Oc1cc(-n2c(=O)cc(C(F)(F)F)[nH]c2=O)c(Cl)cc1C#N (single isomer, unassigned) [Example 13, 5-Chloro-4-[2,6-dioxo-4-(trifluoromethyl)-3,6-dihydropyrimidin-1(2H)-yl]-2-(2-methylphenoxy)benzonitrile (atrop 2)] |  | 2000 nM | 
13 | COc1cc(C#N)c(Oc2ccccc2Cl)cc1-n1c(=O)cc(C(F)(F)F)[nH]c1=O (single isomer, unassigned) [Example 17, 2-(2-Chlorophenoxy)-4-[2,6-dioxo-4-(trifluoromethyl)-3,6-dihydropyrimidin-1(2H)-yl]-5-methoxybenzonitrile (atrop 2)] |  |  | 19000 nM
14 | COc1cc(C#N)c(Oc2ccccc2C)cc1-n1c(=O)cc(Br)[nH]c1=O (single isomer, unassigned) [Example 21, 4-[4-Bromo-2,6-dioxo-3,6-dihydropyrimidin-1(2H)-yl]-5-methoxy-2-(2-methylphenoxy)benzonitrile (atrop 2)] |  | 3000 nM | 145 nM
15 | COc1cc(C#N)c(Oc2ccccc2C)cc1-n1c(=O)cc(-c2ccccc2)[nH]c1=O (single isomer, unassigned) [Example 43, 4-(2,6-Dioxo-4-phenyl-3,6-dihydropyrimidin-1(2H)-yl)-5-methoxy-2-(2-methylphenoxy)benzonitrile (atrop 1)] |  |  | 5500 nM
16 | COc1cc(C#N)c(Oc2ccccc2C)cc1-n1c(=O)cc(-c2ccccc2)[nH]c1=O (single isomer, unassigned) [Example 44, 4-(2,6-Dioxo-4-phenyl-3,6-dihydropyrimidin-1(2H)-yl)-5-methoxy-2-(2-methylphenoxy)benzonitrile (atrop 2)] |  | 6500 nM | 550 nM
17 | COc1cc(C#N)c(Oc2ccccc2C)cc1-n1c(=O)cc(S(C)(=O)=O)[nH]c1=O (single isomer, unassigned) [Example 80, 4-[4-(Methanesulfonyl)-2,6-dioxo-3,6-dihydropyrimidin-1(2H)-yl]-5-methoxy-2-(2-methylphenoxy)benzonitrile (atrop 1)] |  | 2500 nM | 300 nM
18 | Cc1cccc(C)c1Oc1cc(-n2c(=O)cc(C(F)(F)c3ccccc3)[nH]c2=O)c(F)cc1C#N [Example 57, 4-{4-[Difluoro(phenyl)methyl]-2,6-dioxo-3,6-dihydropyrimidin-1(2H)-yl}-2-(2,6-dimethylphenoxy)-5-fluorobenzonitrile] |  | 5000 nM | 1500 nM
19 | CC(=O)c1cc(C)cc(C)c1Oc1cc(-n2c(=O)cc(C(F)(F)F)[nH]c2=O)c(F)cc1C#N [Example 58, 2-(2-Acetyl-4,6-dimethylphenoxy)-4-[2,6-dioxo-4-(trifluoromethyl)-3,6-dihydropyrimidin-1(2H)-yl]-5-fluorobenzonitrile] |  |  | 1800 nM
20 | Cc1ccc(C)c(Oc2cc(-n3c(=O)cc(C(F)(F)F)[nH]c3=O)c(F)cc2C#N)c1C [Example 60, 4-[2,6-Dioxo-4-(trifluoromethyl)-3,6-dihydropyrimidin-1(2H)-yl]-5-fluoro-2-(2,3,6-trimethylphenoxy)benzonitrile] |  |  | 7500 nM
21 | Cc1cc(Cl)cc(C)c1Oc1cc(-n2c(=O)cc(C(F)(F)F)[nH]c2=O)c(F)cc1C#N [Example 61, 2-(4-Chloro-2,6-dimethylphenoxy)-4-[2,6-dioxo-4-(trifluoromethyl)-3,6-dihydropyrimidin-1(2H)-yl]-5-fluorobenzonitrile] |  |  | 2500 nM
22 | Cc1cc(C)c(Oc2cc(-n3c(=O)cc(C(F)(F)F)[nH]c3=O)c(F)cc2C#N)c(C)c1 [Example 62, 4-[2,6-Dioxo-4-(trifluoromethyl)-3,6-dihydropyrimidin-1 (2H)-yl]-5-fluoro-2-(2,4,6-trimethylphenoxy)benzonitrile] |  |  | 2500 nM
23 | N#Cc1cc(F)c(-n2c(=O)cc(C(F)(F)F)[nH]c2=O)cc1Oc1c(N)cccc1F [Example 64, 2-(2-Amino-6-fluorophenoxy)-4-[2,6-dioxo-4-(trifluoromethyl)-3,6-dihydropyrimidin-1(2H)-yl]-5-fluorobenzonitrile] |  | 2600 nM | 297 nM
24 | Cc1cccc(Oc2cc(-n3c(=O)cc(C(F)(F)F)[nH]c3=O)c(F)cc2C#N)c1C [Example 67, 2-(2,3-Dimethylphenoxy)-4-[2,6-dioxo-4-(trifluoromethyl)-3,6-dihydropyrimidin-1(2H)-yl]-5-fluorobenzonitrile] |  |  | 5100 nM
